This passage reports MIC and Ratio results from ChEMBL document CHEMBL5321283, “Structure-Activity Relationships of the Antimicrobial Peptide Natural Product Apidaecin” (J Med Chem, 2023).

Values after ≈ are worked out from the molar mass of the structure shown. *1 amine or outer side, *2 acyl side, *3 side chain or, on linkers, in order; H or OH if unused. Where a SMILES comes first, the peptide text is derived from it. [ ]: non-standard residue; d: D form. The star is where a group is joined. Orn(α-tetramethylguanidino) = CN(C)C(=N[C@@H](CCCN)C(=O)*)N(C)C; X1 = N=C(N)NCCC[C@H](NC(=S)[C@@H]1CCCN1[*:1])C(=O)[*:2]; X3 = O=C([C@@H]1CCCN1C(=S)[C@@H]1CCCN1[*:1])[*:2]; 2Nal = N[C@@H](Cc1ccc2ccccc2c1)C(=O)O; Hyp = O=C(O)[C@@H]1C[C@@H](O)CN1; Cha = N[C@@H](CC1CCCCC1)C(=O)O; Cit = NC(=O)NCCC[C@H](N)C(=O)O; Leu(ol) = CC(C)C[C@H](N)CO

Test [1] has as its system Escherichia coli. Description: Antibacterial activity against Escherichia coli BL21 assessed as bacterial growth inhibition by broth microdilution assay. The class given is functional.
Test [2] concerns Escherichia coli. Kind of test: Potency index, ratio of Api-137 MIC to test compound MIC for antibacterial activity against Escherichia coli BL21 assessed as bacterial growth inhibition by broth microdilution assay. The class given is functional.

On to `CC[C@H](C)[C@H](NC(=O)[C@H](Cc1ccc(O)cc1)NC(=O)[C@@H](NC(=O)[C@@H]1CCCN1C(=O)[C@H](CCCNC(=N)N)NC(=O)[C@H](CC(N)=O)NC(=O)[C@H](CC(N)=O)NC(=O)[C@H](CCCN)N=C(N(C)C)N(C)C)C(C)C)C(=O)N1CCC[C@H]1C(=O)N[C@@H](CCCNC(=N)N)C(=O)N1CCC[C@H]1C(=O)N[C@@H](CCCNC(=N)N)C(=O)N1CCC[C@H]1C(=O)N1CCC[C@H]1C(=O)N[C@@H](Cc1c[nH]cn1)C(=O)N1CCC[C@H]1C(=O)N[C@@H](CCCNC(=N)N)C(=O)N[C@H](CO)Cc1ccccc1`, for which the MIC with Escherichia coli [1] came out at 5 µM (≈ 11.6 µg/mL). Moreover, in the test with Escherichia coli [2], the Ratio was 32.
`CC[C@H](C)[C@H](NC(=O)[C@H](Cc1ccc(O)cc1)NC(=O)[C@@H](NC(=O)[C@@H]1CCCN1C(=O)[C@H](CCCNC(=N)N)NC(=O)[C@H](CC(N)=O)NC(=O)[C@H](CC(N)=O)NC(=O)[C@H](CCCN)N=C(N(C)C)N(C)C)C(C)C)C(=O)N1CCC[C@H]1C(=O)N[C@@H](CCCNC(=N)N)C(=O)N1CCC[C@H]1C(=O)N[C@@H](CCCNC(=N)N)C(=O)N1CCC[C@H]1C(=O)N1CCC[C@H]1C(=O)N[C@@H](Cc1c[nH]cn1)C(=O)N1CCC[C@H]1C(=O)N[C@@H](CCCNC(=N)N)C(=O)N[C@@H](CO)Cc1ccccc1`: the MIC in the test with Escherichia coli [1] is 40 µM (≈ 92.5 µg/mL). In the test with Escherichia coli [2], the Ratio is recorded as 800.
The matching figures for `CC[C@H](C)[C@H](NC(=O)[C@H](Cc1ccc(O)cc1)NC(=O)[C@@H](NC(=O)[C@@H]1CCCN1C(=O)[C@H](CCCNC(=N)N)NC(=O)[C@H](CC(N)=O)NC(=O)[C@H](CC(N)=O)NC(=O)[C@H](CCCN)N=C(N(C)C)N(C)C)C(C)C)C(=O)N1CCC[C@H]1C(=O)N[C@@H](CCCNC(=N)N)C(=O)N1CCC[C@H]1C(=O)N[C@@H](CCCNC(=N)N)C(=O)N1CCC[C@H]1C(=S)N1CCC[C@H]1C(=O)N[C@@H](Cc1c[nH]cn1)C(=O)N1CCC[C@H]1C(=O)N[C@@H](CCCNC(=N)N)C(=O)N[C@@H](CC(C)C)C(=O)O` ({Orn(α-tetramethylguanidino)}-NNRPVYIPRPR[X3]HPRL-OH): 0.62 µM (≈ 1.43 µg/mL) and 4.
The matching figures for `CC[C@H](C)[C@H](NC(=O)[C@H](Cc1ccc(O)cc1)NC(=O)[C@@H](NC(=O)[C@@H]1CCCN1C(=O)[C@H](CCCNC(=N)N)NC(=O)[C@H](CC(N)=O)NC(=O)[C@H](CC(N)=O)NC(=O)[C@H](CCCN)N=C(N(C)C)N(C)C)C(C)C)C(=O)N1CCC[C@H]1C(=O)N[C@@H](CCCNC(=N)N)C(=O)N1C[C@H](O)C[C@H]1C(=O)N[C@@H](CCCNC(=N)N)C(=O)N1CCC[C@H]1C(=O)N1CCC[C@H]1C(=O)N[C@@H](Cc1c[nH]cn1)C(=O)N1CCC[C@H]1C(=O)N[C@@H](CCCNC(=N)N)C(=O)N[C@@H](CC(C)C)C(=O)O` ({Orn(α-tetramethylguanidino)}-NNRPVYIPR[Hyp]RPPHPRL-OH): 1.2 µM (≈ 2.77 µg/mL) and 4.
Regarding `CC[C@H](C)[C@H](NC(=O)[C@H](Cc1ccc(O)cc1)NC(=O)[C@@H](NC(=O)[C@@H]1CCCN1C(=O)[C@H](CCCNC(=N)N)NC(=O)[C@H](CC(N)=O)NC(=O)[C@H](CC(N)=O)NC(=O)[C@H](CCCN)N=C(N(C)C)N(C)C)C(C)C)C(=O)N1CCC[C@H]1C(=O)N[C@@H](CCCNC(=N)N)C(=O)N1CCC[C@H]1C(=O)N[C@@H](CCCNC(=N)N)C(=O)N1CCC[C@H]1C(=O)N1CCC[C@H]1C(=O)N[C@@H](Cc1c[nH]cn1)C(=O)N1CCC[C@H]1C(=O)N[C@@H](CCCNC(=N)N)C(=O)N[C@H](CO)CC(C)C` ({Orn(α-tetramethylguanidino)}-NNRPVYIPRPRPPHPR[Leu(ol)]), in the test on Escherichia coli [1], the minimum inhibitory concentration (MIC) was determined as 5 µM (≈ 11.4 µg/mL). The Ratio with Escherichia coli [2] is listed as 32.
For `CC[C@H](C)[C@H](NC(=O)[C@H](Cc1ccc(O)cc1)NC(=O)[C@@H](NC(=O)[C@@H]1CCCN1C(=O)[C@H](CCCNC(=N)N)NC(=O)[C@H](CC(N)=O)NC(=O)[C@H](CC(N)=O)NC(=O)[C@H](CCCN)N=C(N(C)C)N(C)C)C(C)C)C(=O)N1CCC[C@H]1C(=O)N[C@@H](CCCNC(=N)N)C(=O)N1CCC[C@H]1C(=O)N[C@@H](CCCNC(=N)N)C(=O)N1CCC[C@H]1C(=O)N1CCC[C@H]1C(=O)N[C@@H](CC1CCCCC1)C(=O)N1CCC[C@H]1C(=O)N[C@@H](CCCNC(=N)N)C(=O)N[C@@H](CC(C)C)C(=O)O` ({Orn(α-tetramethylguanidino)}-NNRPVYIPRPRPP[Cha]PRL-OH), the MIC with Escherichia coli [1] came to 5 µM (≈ 11.5 µg/mL). Besides, in the test with Escherichia coli [2], the Ratio is given as 32.
Take `CC[C@H](C)[C@H](NC(=O)[C@H](Cc1ccc(O)cc1)NC(=O)[C@@H](NC(=O)[C@@H]1CCCN1C(=O)[C@H](CCCNC(=N)N)NC(=O)[C@H](CC(N)=O)NC(=O)[C@H](CC(N)=O)NC(=O)[C@H](CCCN)N=C(N(C)C)N(C)C)C(C)C)C(=O)N1CCC[C@H]1C(=O)N[C@@H](CCCNC(=N)N)C(=O)N1CCC[C@H]1C(=O)N[C@@H](CCCNC(=N)N)C(=O)N1CCC[C@H]1C(=O)N1CCC[C@H]1C(=O)N[C@@H](Cc1ccc2ccccc2c1)C(=O)N1CCC[C@H]1C(=O)N[C@@H](CCCNC(=N)N)C(=O)N[C@@H](CC(C)C)C(=O)O` ({Orn(α-tetramethylguanidino)}-NNRPVYIPRPRPP[2Nal]PRL-OH): the MIC with Escherichia coli [1] was 10 µM (≈ 23.5 µg/mL). The Ratio with Escherichia coli [2] was 63.
Turning to `CC[C@H](C)[C@H](NC(=O)[C@H](Cc1ccc(O)cc1)NC(=O)[C@@H](NC(=O)[C@@H]1CCCN1C(=O)[C@H](CCCNC(=N)N)NC(=O)[C@H](CC(N)=O)NC(=O)[C@H](CC(N)=O)NC(=O)[C@H](CCCN)N=C(N(C)C)N(C)C)C(C)C)C(=O)N1CCC[C@H]1C(=O)N[C@@H](CCCNC(=N)N)C(=O)N1CCC[C@H]1C(=O)N[C@@H](CCCNC(=N)N)C(=O)N1CCC[C@H]1C(=O)N1CCC[C@H]1C(=O)N[C@@H](Cc1c[nH]cn1)C(=O)N1CCC[C@H]1C(=S)N[C@@H](CCCNC(=N)N)C(=O)N[C@@H](CC(C)C)C(=O)O` ({Orn(α-tetramethylguanidino)}-NNRPVYIPRPRPPH[X1]L-OH), the MIC in the test with Escherichia coli [1] was 0.62 µM (≈ 1.43 µg/mL). For the same compound, the Ratio with Escherichia coli [2] was 4.
As for `CC[C@H](C)[C@H](NC(=O)[C@H](Cc1ccc(O)cc1)NC(=O)[C@@H](NC(=O)[C@@H]1CCCN1C(=O)[C@H](CCCNC(=N)N)NC(=O)[C@H](CC(N)=O)NC(=O)[C@H](CC(N)=O)NC(=O)[C@H](CCCN)N=C(N(C)C)N(C)C)C(C)C)C(=O)N1CCC[C@H]1C(=O)N[C@@H](CCCNC(=N)N)C(=O)N1CCC[C@H]1C(=O)N[C@@H](CCCNC(=N)N)C(=O)N1CCC[C@H]1C(=O)N1CCC[C@H]1C(=O)N[C@@H](Cc1c[nH]cn1)C(=O)N1CCC[C@H]1C(=O)N[C@@H](CCCNC(N)=O)C(=O)N[C@@H](CC(C)C)C(=O)O` ({Orn(α-tetramethylguanidino)}-NNRPVYIPRPRPPHP[Cit]L-OH), the MIC in the test with Escherichia coli [1] amounted to 20 µM (≈ 45.9 µg/mL). In addition, the Ratio in the test with Escherichia coli [2] is listed as 128.
For the compound `CC[C@H](C)[C@H](NC(=O)[C@H](Cc1ccc(O)cc1)NC(=O)[C@@H](NC(=O)[C@@H]1CCCN1C(=O)[C@H](CCCNC(=N)N)NC(=O)[C@H](CC(N)=O)NC(=O)[C@H](CC(N)=O)NC(=O)[C@H](CCCN)N=C(N(C)C)N(C)C)C(C)C)C(=O)N1CCC[C@H]1C(=O)N[C@@H](CCCNC(=N)N)C(=O)N1CCC[C@H]1C(=O)N[C@@H](CCCNC(=N)N)C(=O)N1CCC[C@H]1C(=O)N1CCC[C@H]1C(=O)N[C@@H](Cc1c[nH]cn1)C(=O)N1C[C@H](O)C[C@H]1C(=O)N[C@@H](CCCNC(=N)N)C(=O)N[C@@H](CC(C)C)C(=O)O` ({Orn(α-tetramethylguanidino)}-NNRPVYIPRPRPPH[Hyp]RL-OH), in the test with Escherichia coli [1], the MIC stood at 0.3 µM (≈ 0.692 µg/mL). Moreover, the Ratio in the test on Escherichia coli [2] is on record as 2.

For orientation: MIC means the lowest concentration found to suppress growth.
